Measurements as given in article PMC7667655, “Targeted Covalent Inhibition of Plasmodium FK506 Binding Protein 35” (ACS Medicinal Chemistry Letters, 2020).
Converted amounts (≈) assume the structure as drawn. Like-named read-outs stand apart in the source and are kept apart here.

Legend:
[1] = target: T1, FBD35 (PfFKBP35 binding domain) (Plasmodium falciparum, UniProt Q8I4V8); assay: Fluorescence polarization competition, FBD35
T1 construct: FKBP35 Q5 -A128; 6His-SUMO (N, cleaved yes); made in house; host or cells: E. coli BL21 DE3

[2] = target: T2, FKBP12 (Homo sapiens, UniProt P62942); assay: Fluorescence polarization competition, FKBP12; format: binding
T2 construct: 6His-SUMO (N, cleaved yes); made in house; host or cells: E. coli (identical protocol to FBD35, BL21 DE3)

[3] = target: T1, FBD35 (PfFKBP35 binding domain); assay: Differential scanning calorimetry, FBD35; conditions: read-out: FBD35 ΔTM
[4] = target: T2, FKBP12; assay: Differential scanning calorimetry, FKBP12; format: binding; conditions: compound 40 µM
[5] = target: T3, nLuc-tagged full length PfFKBP35 (Plasmodium falciparum, UniProt Q8I4V8); assay: NanoBRET cellular target engagement, nLuc-FKBP35; format: cell-based
T3 construct: nanoluciferase-tagged (nLuc) full length PfFKBP35 or nLuc-tagged FKBP12; expressed in transfected cells

[6] = target: T4, nLuc-tagged FKBP12 (Homo sapiens, UniProt P62942); assay: NanoBRET cellular target engagement, nLuc-FKBP12; format: cell-based
T4 construct: full length Plasmodium falciparum FKBP35 and human FKBP12 DNA were; expressed in transfected cells

[7] = target: T5, FKBP35 (Plasmodium falciparum, UniProt Q8I4V8); assay: Time course of covalent modification by LC-MS; format: biochemical
T5 construct: FKBP35 Q5 -A128; 6His-SUMO (N, cleaved yes); made in house; host or cells: E. coli BL21 DE3
Text: RT=5.2). B. Overlay of mass determinations from LC traces in (A). FBD35 only (black, m/z = […]
chromatogram corresponding to Figure 4c detecting the CAM -peptide […] at […]
m/z 855.8668. D. Mass spec chromatogram corresponding to Figure 4d detecting the CAM - […]
peptide […] at m/z 855.8670. E. Mass spec chromatogram corresponding to Figure 4e which was unable to detect the mass of the 1c-inclusion peptide. F. Mass spec chromatogram corresponding to Figure 4f detecting the 1c-inclusion peptide […]
Figure S2. Time course of covalent modification. In order to compare rates of covalent modification, compounds 1a-c, 2a, and 2c were incubated with FKBP35 in a 5:1 ratio (2250 nM inhibitor : 450 nM FKBP35) and FKBP35 consumption or modification determined by LC -MS. A.
The concentration of residual FKBP35 as a function of time. Data was fit to an exponential “one phase decay” model which was used to calculate the rate (K) and half -life (t1/2) of the reaction.
The loss of FKBP35 in the DMSO and 1b controls is likely due to adsorption onto the vial. B.
Concentration of covalent adduct as a function of time. Data was fit to an “exponential plateau” regression model, which was used to calculate the rate of formation (K’). Compound 1b, which […]
C. Tabulated rates calculated from the regressions in A and B. The rates of FKBP35 consumption correlate strongly with the rates of […]
(also on this page, place not known: -inclusion 1c 0 20 40 60 0 200 400 600 Time (hours) FKBP35 (nM) Consumption of FKBP35 1a 1b 1c 2a 2c DMSO 0 20 40 60 0 200 400 600 Time (hours) Covalent Adduct (nM) Formation of Covalent Adduct 1a 1b 1c 2a 2c A B) […]
(1 picture or pasted object on this page, not shown here)
Experiments were performed using 0.4 mg/mL concentration of wild -type or mutant protein (6 - 9 uM), with and without synthes ized compounds at 40 µM and 2% DMSO (V/V). The respective reference scans were run under identical DSC conditions and subtracted from each sample scan.
The program was run in a continuous acquisition mode from 25°C to 90°C at a rate of 120C/h The heat capacity curves and midpoint temperature (Tm) were analyzed using Origin 7.0 software.
Fluorescence Polarization
The fluorescent tracer SLFb-2PEG-TAMRA was diluted in DMSO to 100 nM (100x stock concentration). FKBP proteins were diluted in assay buffer (150 mM NaCl, 20 mM HEPES pH 7.5, 0.002% Triton X -100) to the indicated concentration. 100x DMSO tracer stock was added to the protein buffer solution to a 1X final concentration and 20 µL of the mixture was aliquoted into each well of a black 384 -well assay plate (No. 3820, Corning Life Sciences). The plate was briefly centrifuged to remove bubbles. Using a d300e digital dispenser (Tecan), competitive ligands (10 mM stock in DMSO) were aliquoted in triplicate in an 8 -point 3x dilution series (30 µM to 13.7 nM final concentra tion) and normalized to 2% total DMSO concentration. Following incubation at room temperature (RT) for one hour, fluorescence polarization was measured using an EnVision Multimode Plate Reader (PerkinElmer) with the TAMRA Dual -FP mirror and filter kit. […]
analyzed in GraphPad Prism 8 by fitting the data to the “One Site – Fit Ki” model to obtain the […]
Time Course Analysis of Covalent Inhibition
The following analy sis was performed as described on two different days, yielding similar results.
One replicate is shown for clarity. In 1.5 mL snap -top tubes, ligands 1a, 1b, 1c, 2a, and 2c were each diluted to 450 μM in DMSO to produce 200x stock solutions. In a separate 1.5 mL snap-top tube, isolated FKBP35 protein was diluted to 90 μM in the reaction buffer (150 mM NaCl, 20 mM HEPES pH = 7.5) to produce a 200x stock solution. In 2 mL glass mass spec vials, 5 μL of each 200x ligand solution was diluted in 990 μL reaction buffer. Immediately prior to injection of each t=0 time point, 5 μL of the 200x protein solution was added to the mass spec vial and mixed. Samples were analyzed using the Waters BioAccord LC-ToF (composed of an ACQUITY I -Class UPLC and […]

[8] = test system: NF54 P. falciparum parasites; assay: P. falciparum strain NF54 growth-inhibition assay; format: cell-based; conditions: Plasmodium falciparum; luciferase reporter NF54 line, 72 h
Protocol: Figure 6 P. falciparum strain NF54 growth-inhibition assay. […] Proliferation was measured by luminescence after a complete life-cycle and normalized to DMSO (100%) and chloroquine (100 nM, 0%). (B) Structural differences between synthetic ligands and compound IC50s (μM).
Substrate and Extracellular NanoLuc® Inhibitor (Promega, cat. N2160) were diluted at 1:166 and 1:500, respectively, in Opti -MEM I Reduced Serum Media. 25 µL of this solution was added to each well and plate was read immediately using an EnVision Multimode Plate Reader (PerkinElmer). The BRET ratio was calculated using the following formula:
BRET ratio = acceptorsample – acceptorno tracer control donorsample donorno tracer control
NanoBRET Target Engagement Assay (384-well)
HEK293T cells stably expressing either nLuc-FKBP12 or nLuc-FKBP35 were plated at 0.2×10^6 cells/mL in white, clear -bottom 384-well plates (Sigma Aldrich) in Opti -MEM I Reduced Serum Media (ThermoFisher Scientific) using a Mutidrop Combi Reagent Dispenser (ThermoFisher Scientific). Cells were incubated overnight at 37 °C, 5% CO 2. Using a Tecan D300e, the Rap-Gly-BDP tracer was added to cells to 1 µM. Plates were shaken at 700 RPM on an orbital plate shaker and incubated at 37 °C, 5% CO 2 for 10 minutes. Test compounds were added at the indicated concentrations using a Tecan D300e. Plates were shaken at 700 RPM on an orbital plate shaker and incubated at 37 °C, 5% CO 2 for 2 hours. NanoBRET Nano -Glo Substrate and Extracellular NanoLuc® Inhibitor (Promega, cat. N2160) were diluted at 1:166 and 1:500, respectively, in Opti-MEM I Reduced Serum Media. 10 µL of this solution was added to each well and plate was read immediately using an EnVision Multimode Plate Reader (PerkinElmer). The BRET ratio was calculated using the above formula.
Parasite Culture and Inhibition
NF54 P. falciparum parasites constitutively expressing Renilla luciferase (RLuc) and Blasticidin-S deaminase under the PfHsp86 5’ and PfHRP2 3‘ regulatory sequences integrated in the cg6 chromosomal locus 4 were maintained continuous ly in media consisting of human erythrocytes at 2% haematocrit (O+) resuspended in RPMI 1640 (Gibco® 31800022) supplemented with 5% Albumax (Gibco® 11021045; complete medium) and 2.5 µg/mL of Blasticidin (RPI Corp B12150-0.1) in a gas mixture consisting of 5% CO2, 1% O2, and 94% N2 at 37 °C (Trager and Jensen 2005).
Parasitemia was determined every 48 h through microscopic examination of thin blood smears fixed in methanol, stained with 10% Giemsa solution, and sub-cultured to 0.5-1% parasitaemia.
Compound susceptibility assays
In 96-well round-bottom plates, sorbitol -synchronized cultures of ring-stage NF54 P. falciparum parasites were established in triplicate and treated with varying concentrations of the inhibitors (25-0.0038 μM) serially diluted in complete medium. Parasite proliferation rates were analyzed after 72 h using the Renilla-Glo Luciferase Assay, and luminescence was measured using the GloMax® Discover Microplate Reader. EC 50 values were obtained from corrected dose-response curves using GraphPad Prism (version 5; GraphPad Software). Data represent the mean % luminescence relative to 5% DMSO-treated (vehicle, 100% growth) and 100 nM chloroquine-treated (no growth) controls.
In black, clear-bottom 96-well plates (No. 3904 Corning Life Sciences), HEK293T cells were plated at 2x10^5 cells/mL in DMEM high glucose, pyruvate media (ThermoFisher Scientific, cat. 11995073) supplemented with 10% FBS and 1% pen -strep (100 μL final volume). Cells were incubated overnight at 37°C, 5% CO2. Using a Tecan D300e digital dispenser, cells were dosed in triplicate […]
concentration, 100 mM stock in DMSO) and Carfilzomib (10 µM to 4.6 nM final concentration, 10 mM stock in DMSO) normalizing DMSO to 0.25%. Cells were then incubated at 37 °C, 5% CO2 for 72 hours. Following incubation, cells were treated with 70 µL CellTiter-Glo® Luminescent Cell […]

[9] = PBS solubility; conditions: pH 7.4
[10] = fluorescence polarization, competitive inhibition model, read-out: FKBP12 IC50
[11] = differential scanning calorimetry, compound 40 µM
[12] = read-out: FBD35 IC50, fluorescence polarization, competitive inhibition model, * incomplete displacement of fluorescent probe

T3 sequence (Q8I4V8 whole entry): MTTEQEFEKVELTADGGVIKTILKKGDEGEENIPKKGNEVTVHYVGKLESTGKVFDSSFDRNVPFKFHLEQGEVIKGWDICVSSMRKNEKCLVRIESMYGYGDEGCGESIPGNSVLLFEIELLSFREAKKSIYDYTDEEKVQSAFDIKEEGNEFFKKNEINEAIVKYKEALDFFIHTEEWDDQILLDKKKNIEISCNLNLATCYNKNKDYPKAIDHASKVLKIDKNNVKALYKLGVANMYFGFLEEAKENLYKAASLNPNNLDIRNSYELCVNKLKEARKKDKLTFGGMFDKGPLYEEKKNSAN
T1 sequence (Q8I4V8 5-128): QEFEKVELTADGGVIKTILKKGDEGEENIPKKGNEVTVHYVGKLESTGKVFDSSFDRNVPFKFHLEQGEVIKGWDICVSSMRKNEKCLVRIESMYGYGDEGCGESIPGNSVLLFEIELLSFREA
T2 sequence (P62942 whole entry): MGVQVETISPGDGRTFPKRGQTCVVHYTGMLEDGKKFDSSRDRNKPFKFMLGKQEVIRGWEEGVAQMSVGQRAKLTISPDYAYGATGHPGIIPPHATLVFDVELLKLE
T4 sequence (P62942 whole entry): as above
T5 sequence (Q8I4V8 5-128): as the sequence (Q8I4V8 5-128) above

| SMILES | IC50 [1] | IC50 [2] | ΔTm at 40 µM [3] | ΔTm at 40 µM [4] | IC50 [2, 10] | solubility [9] | also measured |
| --- | --- | --- | --- | --- | --- | --- | --- |
| C=CC(=O)NCC(C)(C)C(=O)C(=O)N1CCCC[C@H]1C(=O)O[C@H](CCc1ccc(OC)c(OC)c1)c1ccccc1 [2a] | 104 nM | 23 nM | 15.2 °C | 8.8 °C |  |  | IC50 [5]: 1350 nM; IC50 [6]: 501 nM; K, rate of FKBP35 consumption ([7]; 2250 nM inhibitor : 450 nM FKBP35, 23 °C, one phase decay fit): 0.05916 h⁻¹; K’, rate of covalent adduct formation ([7]; 2250 nM inhibitor : 450 nM FKBP35, exponential plateau fit): 0.04354 h⁻¹ |
| CCC(C)(C)C(=O)C(=O)N1CCCC[C@H]1C(=O)O[C@H](CCc1ccc(OC)c(OC)c1)c1cccc(OCC(=O)O)c1 [SLFb, reference compound] | 761 nM |  | 2.8 °C | 6.6 °C | 27 nM | 59 µM (≈ 34.4 µg/mL) | tracer displacement (in words), FKBP35 ([5]; NanoBRET, 2 h incubation): markedly reduced probe displacement; tracer displacement (in words), FKBP12 ([6]; NanoBRET, 2 h incubation): markedly reduced probe displacement; IC50 [8]: 33700 nM |
| C=CC(=O)OCC(C)(C)C(=O)C(=O)N1CCCC[C@H]1C(=O)O[C@H](CCc1ccc(OC)c(OC)c1)c1cccc(OCC(=O)O)c1 [2h] | 137 nM | 38 nM | 16.3 °C | 6.2 °C |  | 70 µM (≈ 44.8 µg/mL) |  |
| C=CC(=O)Nc1ccc([C@@H](CCc2ccc(OC)c(OC)c2)OC(=O)[C@@H]2CCCCN2C(=O)C(=O)C(C)(C)CC)cc1 [1d] | 85 nM | 100 nM | 2.3 °C | 6 °C |  |  |  |
| C=CC(=O)NCCCC(=O)N1CCCC[C@H]1C(=O)O[C@H](CCc1ccc(OC)c(OC)c1)c1ccccc1 [2e] | 2640 nM | 3250 nM | 13.8 °C | 7.9 °C |  |  |  |
| CCC(C)(C)C(=O)C(=O)N1CCCC[C@H]1C(=O)O[C@H](CCc1ccc(OC)c(OC)c1)c1cccc(N)c1 [SLF, reference compound] | 177 nM |  | 2.9 °C | 0.4 °C |  |  |  |
| C=CC(=O)Nc1cc(OC)ccc1C(=O)C(=O)N1CCCC[C@H]1C(=O)O[C@H](CCc1ccc(OC)c(OC)c1)c1ccccc1 [2g] |  |  |  | 0.1 °C | > 30000 nM |  | ΔTm at 40 µM [3, 11]: 0 °C |
| C=CC(=O)Nc1ccccc1C(=O)C(=O)N1CCCC[C@H]1C(=O)O[C@H](CCc1ccc(OC)c(OC)c1)c1ccccc1 [2f] |  |  |  | 0.2 °C | > 30000 nM |  | ΔTm at 40 µM [3, 11]: 0.4 °C |
| C=CC(=O)Nc1ccccc1[C@@H](CCc1ccc(OC)c(OC)c1)OC(=O)[C@@H]1CCCCN1C(=O)C(=O)c1cc(OC)c(OC)c(OC)c1 [1f] |  |  |  | 1.4 °C | 3270 nM | 23 µM (≈ 15.5 µg/mL) | IC50 [1, 12]: > 30000 nM; ΔTm at 40 µM [3, 11]: -1.3 °C |
| CCC(=O)NCC(C)(C)C(=O)C(=O)N1CCCC[C@H]1C(=O)O[C@H](CCc1ccc(OC)c(OC)c1)c1ccccc1 [2b] | 92 nM | 40 nM | 4.3 °C | 7.7 °C |  |  | IC50 [5]: 1880 nM; IC50 [6]: 416 nM |
| C=CC(=O)Nc1cccc([C@@H](CCc2ccc(OC)c(OC)c2)OC(=O)[C@@H]2CCCCN2C(=O)C(=O)c2cc(OC)c(OC)c(OC)c2)c1 [1e] |  | 326 nM | 1.5 °C | 4.9 °C |  | 3.1 µM (≈ 2.09 µg/mL) | IC50 [1, 12]: > 30000 nM |
